Measured values reported in patent US20060205772A1, “Amide derivatives and their use as inhibitors of 11-beta-hydroxysteroid dehydrogenase type I” (priority 2003, published 2006).

Experiments:
[1] = molecular target: T1, human recombinant 11β-HSD1 (Homo sapiens, UniProt P28845); assay: in vitro inhibition of human recombinant 11β-HSD1 (Pichia pastoris microsomes, [3H]cortisone to [3H]cortisol); type: biochemical; conditions: recombinant human 11β-HSD1 microsomes, 500 nM cortisone mixture, NADPH, 90 min at 37° C.
T1 construct: made in house; host or cells: Pichia pastoris (microsomal fraction)
T1 sequence (P28845 whole entry): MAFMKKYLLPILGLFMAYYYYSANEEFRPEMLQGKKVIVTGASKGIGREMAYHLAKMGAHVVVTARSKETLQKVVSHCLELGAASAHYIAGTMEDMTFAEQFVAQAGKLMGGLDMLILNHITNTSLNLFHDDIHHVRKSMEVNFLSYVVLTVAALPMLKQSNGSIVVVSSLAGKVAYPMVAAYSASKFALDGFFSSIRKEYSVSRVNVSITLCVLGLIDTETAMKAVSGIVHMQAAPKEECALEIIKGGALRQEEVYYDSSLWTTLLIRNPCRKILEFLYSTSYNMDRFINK
Protocol: The in vitro inhibition of human recombinant 11β-HSD1 is determined as follows:
Recombinant human 11β-HSD1 is expressed in yeast Pichia pastoris. Cultures are grown at 30° C. for 3 days in the presence of methanol to induce enzyme expression. The microsomal fraction overexpressing 11β-HSD1 is prepared from the cell homogenate and used as the enzyme source for primary screening. A test compound at the desired concentration is preincubated for 10 min at RT with 3 μg of the microsomal protein in 50 mM sodium phosphate, pH 7.5, in a total volume of 80 μL. The enzyme reaction is initiated by adding 20 μL of a mixture containing 5 mM NADPH, 500 nM cortisone, and 80,000 dpm of [^3H]cortisone in the same buffer and is terminated by ethyl acetate after incubation for 90 min at 37° C. The production of [^3H]cortisol is quantitated upon separation from [^3H]cortisone by a C18 column on HPLC equipped with a radioactivity detector. Glycerrhetinic acid, a known inhibitor of 11β-HSD1, is used as a standard.

human 11β-HSD2 = molecular target: T2, human 11β-HSD2 (Homo sapiens, UniProt P80365); assay: in vitro inhibition of human 11β-HSD2 (SW-620 cell lysates, [3H]cortisol to [3H]cortisone); type: biochemical
T2 construct: using lysates of SW-620 cells as the enzyme source; host or cells: SW-620 human colon carcinoma cells (lysate)
T2 sequence (P80365 1-405): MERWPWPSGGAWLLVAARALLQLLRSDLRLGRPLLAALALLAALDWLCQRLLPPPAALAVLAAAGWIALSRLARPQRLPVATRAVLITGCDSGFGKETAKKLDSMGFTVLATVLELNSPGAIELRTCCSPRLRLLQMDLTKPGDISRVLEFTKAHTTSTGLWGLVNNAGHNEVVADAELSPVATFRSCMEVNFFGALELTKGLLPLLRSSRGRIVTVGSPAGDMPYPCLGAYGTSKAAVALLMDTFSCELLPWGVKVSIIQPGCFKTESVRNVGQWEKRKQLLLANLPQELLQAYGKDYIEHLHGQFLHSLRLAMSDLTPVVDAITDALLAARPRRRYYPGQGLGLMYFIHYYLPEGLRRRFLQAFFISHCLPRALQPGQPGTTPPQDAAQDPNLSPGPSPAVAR
Protocol: The in vitro inhibition of human 11β-HSD2 is determined as follows:
The SW-620 human colon carcinoma cell line is obtained from the American Type Culture Collection (ATCC). Cells are plated at a density of 8-10×10^4 cells/cm^2 in DMEM/F12 containing 5% BCS, 100 U/mL penicillin, 100 μg/mL streptomycin and […] amphotericin B. Cultures are grown to 80-90% confluence in a humidified, atmosphere of 5% CO2 at 37° C. The medium is changed to serum-free, phenol red-free DMEM/F12 at 24 h before harvesting the cells.
After 24 h in serum-free medium, cultured SW-620 cells are rinsed and scraped in Kreb's-Ringer buffer, pH 7.4, containing 1 mM EDTA, 2 μg/mL aprotinin, 10 μM leupeptin and 1 μM pepstatin. After sonication (30 seconds) and low speed centrifugation (2,000 rpm, 5 min) to remove cellular debris, the supernatant is collected and used to determine enzyme activity and protein concentration (BCA, Pierce, Rockford, Ill.).
Dehydrogenase activity is quantified by measuring the conversion of [^3H]cortisol to [^3H]cortisone using lysates of SW-620 cells as the enzyme source. The assay is performed in tubes containing Kreb's-Ringer buffer pH 7.4, with 0.20 mM NAD and 200,000 dpm of [^3H]cortisol and a test compound in a total volume of 1 mL. The tubes are preincubated for 10 min at 37° C. before adding 200 μg of cell lysates to start the reaction. After incubation for 1 h at 37° C. in a shaking water bath, the mixture is extracted with 2 volumes of ethyl acetate and centrifuged for 10 min at 2,000 rpm. The organic layer is collected, dried under vacuum and resuspended in methanol. The dissolved residues are quantitatively transferred to thin layer plates and developed in chloroform-methanol (90:10). Unlabeled cortisol and cortisone were used as reference markers. The TLC plates are scanned on a Bioscan radioimaging detector (Bioscan, Washington, D.C.), and the fractional conversion of cortisol to cortisone is calculated. Enzyme activity is expressed as pmoles of product formed per mg protein per hour. Carbenoxolone and glycyrrhetinic acid are used as standards.

[2] = tested on: corticosterone production in adrenalectomized (ADX) mice; assay: inhibition of corticosterone production in adrenalectomized (ADX) mice; type: in vivo; conditions: Mus musculus, po; ADX CD1 mice, orally 25 mg/kg each at 2 and 4 h before sacrifice; liver corticosterone
Protocol: Inhibition of corticosterone production in adrenalectomized (ADX) mice is determined as follows:
Bilateral adrenalectomy is performed in male mice of the CD1 strain (6 to 8 weeks of age, 25-30 g body weight) through a lumbar laparotomy. After 10 days the animals are fasted for 24 h. Compounds are administered orally at 25 mg/kg each at 2 and 4 h before sacrifice. A second group of animals receives carbenoxolone at the same dose, and a third group receives the vehicle (cornstarch). Homogenized liver samples are used to measure corticosterone concentration which is determined by radioimmunoassay and is expressed as pg of corticosterone per mg of liver protein.

cellular 11β-HSD1 = molecular target: T3, cellular 11β-HSD1 (Rattus norvegicus, UniProt P16232); assay: inhibition of cellular 11β-HSD1 activity in primary rat hepatocytes; type: cell-based; conditions: 2 h incubation
T3 construct: Enzyme activity is measured in the medium of primary cultures of rat hepatocytes 48 h after plating the cells; endogenous in cells; host or cells: primary hepatocytes of male Sprague-Dawley rats
T3 sequence (P16232 whole entry): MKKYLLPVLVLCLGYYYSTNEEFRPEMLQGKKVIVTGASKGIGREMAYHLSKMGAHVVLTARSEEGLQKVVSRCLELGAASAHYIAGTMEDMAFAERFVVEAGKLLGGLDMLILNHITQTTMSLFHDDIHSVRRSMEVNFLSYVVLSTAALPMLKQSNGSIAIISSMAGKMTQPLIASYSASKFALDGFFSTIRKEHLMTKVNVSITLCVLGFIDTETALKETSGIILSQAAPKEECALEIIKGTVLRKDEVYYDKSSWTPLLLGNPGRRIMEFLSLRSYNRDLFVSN
Protocol: The inhibition of cellular 11β-HSD1 activity in primary rat hepatocytes is determined as follows:
Male Sprague-Dawley rats weighing 180-200 g are anesthetized with sodium pentobarbital (65 mg/kg). The liver is perfused in situ with calcium-free Earl's Balanced Salt Solution (EBSS) followed by EBSS containing 100-150 U/mL of collagenase, 1.8 mM CaCl2 and 10 mM HEPES, pH 7.4. The perfused liver is removed and aseptically placed in warm William's Medium E containing 10% BCS. After decapsulation, the organ is transferred to fresh medium and gently shaken to facilitate tissue dissociation and cell release. Hepatocytes are separated from nonparenchymal and dead cells by repeated low speed centrifugation. Cell viability is determined by trypan blue exclusion.
Hepatocytes are plated on collagen coated dishes at a density of 1×10^5 cells/cm^2 in William's medium E containing 10% BCS, 100 U/mL penicillin, 100 μg/mL streptomycin, 0.25 μg/mL amphotericin B, 2 mM L-glutamine, 10 mM HEPES, 100 nM insulin and 1 nM dexamethasone. After 1 h the medium is changed to serum-free William's medium E supplemented as described above. Thereafter, the medium is replaced every 24 h. The cultures are maintained in a humidified atmosphere of 5% CO2 at 37° C.
Enzyme activity is measured in the medium of primary cultures of rat hepatocytes 48 h after plating the cells. The medium is aspirated and replaced with serum-free William's medium E containing 2 nM [^3H]11-dehydrocorticosterone and a test compound and is incubated for 2 h. An aliquot of culture medium is removed at the end of the incubation and the mixture is extracted with 2 volumes of ethyl acetate, dried under vacuum and resuspended in methanol. The dissolved residues are quantitatively transferred to thin layer plates and developed in chloroform-methanol (90:10). The TLC plates are scanned on a Bioscan imaging detector and the fractional conversion of 11-dehydrocorticosterone to corticosterone is calculated. The cell layer is rinsed with cold phosphate-buffered saline and dissolved in 0.1 N NaOH/5% SDS for the determination of cellular protein (BCA, Pierce, Rockford, Ill.). Enzyme activity is expressed as pmoles of product formed per mg protein per hour.

## Cn1c(C(=O)N2CCC[C@@H]3CCCC[C@H]32)cc2ccccc21 (relative stereo) [Example 38, (1-Methyl-1H-indol-2-yl)-(4aS*,8aR*)-octahydro-1(2H)-quinolin-1-yl-methanone]
[1]
  IC50: 0.18 µM
Human 11β-HSD2
  inhibition at 10 µM: 10%
[2]
  change in vivo at 25 mg/kg: -62%
Cellular 11β-HSD1
  inhibition at 1 µM: 49%

## CN(CC1CCCCC1)C(=O)c1ccc(NC(=O)c2ccc(F)cc2)cc1Cl [Example 3-11]
[1]
  IC50: 1 µM
Human 11β-HSD2
  inhibition at 10 µM: 26%
[2]
  change in vivo at 25 mg/kg: -69%
Cellular 11β-HSD1
  inhibition at 1 µM: 80%

## CC1=C(C(=O)N(C)CC23CC4CC(CC(C4)C2)C3)Cc2ccccc21 [Example 8-6]
[1]
  IC50: 0.0065 µM
Human 11β-HSD2
  inhibition at 10 µM: 11%
[2]
  change in vivo at 25 mg/kg: -57%
Cellular 11β-HSD1
  inhibition at 1 µM: 54%

## O=C(Nc1ccc(C(=O)N2CCC[C@@H]3CCCC[C@@H]32)cc1)c1ccc(F)cc1 [Example 11-13]
[1]
  IC50: 0.563 µM
Human 11β-HSD2
  inhibition at 10 µM: 2%
[2]
  change in vivo at 25 mg/kg: -73%
Cellular 11β-HSD1
  inhibition at 1 µM: 90%

## COc1cccc(NC(=O)Nc2ccc(C(=O)N3CCC[C@H]4CCCC[C@H]43)c(OC)c2)c1 [Example 13-4]
[1]
  IC50: 0.042 µM
Human 11β-HSD2
  inhibition at 10 µM: 44%
[2]
  change in vivo at 25 mg/kg: -70%
Cellular 11β-HSD1
  inhibition at 1 µM: 53%

## COc1ccccc1CNC(=O)c1ccc(C(=O)N2CCC[C@@H]3CCCC[C@@H]32)cc1 [Example 23-47]
[1]
  IC50: 2.12 µM
Human 11β-HSD2
  inhibition at 10 µM: 49%
[2]
  change in vivo at 25 mg/kg: -61%
Cellular 11β-HSD1
  inhibition at 1 µM: 71%

## O=C(NCc1ccc(F)cc1)N1CCc2cc(C(=O)N3CCC[C@H]4CCCC[C@H]43)ccc21 [Example 33-21]
[1]
  IC50: 0.262 µM
Human 11β-HSD2
  inhibition at 10 µM: 45%
[2]
  change in vivo at 25 mg/kg: -71%
Cellular 11β-HSD1
  inhibition at 1 µM: 84%

## O=C(c1ccc(-c2ccccc2[N+](=O)[O-])o1)N1CCC[C@@H]2CCCC[C@@H]21 [Example 35-15]
[1]
  IC50: 0.0077 µM
Human 11β-HSD2
  inhibition at 10 µM: 34%
[2]
  change in vivo at 25 mg/kg: -67%
Cellular 11β-HSD1
  inhibition at 1 µM: 76%

## COC(=O)Nc1ccc(C(=O)N2CC[C@H]3CCCC[C@H]3C2)c(OC)c1 [Example 48-37]
[1]
  IC50: 0.77 µM
Human 11β-HSD2
  inhibition at 10 µM: 29%
[2]
  change in vivo at 25 mg/kg: -69%
Cellular 11β-HSD1
  inhibition at 1 µM: 75%
